Assay results reported in ChEMBL document CHEMBL1126299, “Synthesis and structure-activity relationships of cephalosporins with C-3' catechol-containing residues” (J Med Chem, 1992).
≈ marks a conversion by molar mass, not a printed value.

What was measured:
Pseudomonas aeruginosa [1] = assay: microbe, parasite or virus in culture
Description: Minimum inhibitory concentration in Pseudomonas aeruginosa, 18SH constitutive depressed type 1 lactamase producer

Enterobacter cloacae [2] = assay: microbe, parasite or virus in culture
Description: Minimum inhibitory concentration in Enterobacter cloacae, P99- inducible type 1 lactamase producer

Providencia stuartii [3] = assay: microbe, parasite or virus in culture
Description: Minimum inhibitory concentration in Pseudomonas stuartii, DR 442049 constitutive depressed type 1 lactamase producer

Enterobacter cloacae [4] = assay: microbe, parasite or virus in culture; remark: listed apart in the source
Description: Minimum inhibitory concentration in Enterobacter cloacae, DR 401108 constitutive depressed type 1 lactamase producer

Citrobacter freundii [5] = assay: microbe, parasite or virus in culture
Description: Minimum inhibitory concentration in Citrobacter freundii, DR 382031 constitutive depressed type 1

Enterobacter cloacae [6] = assay: microbe, parasite or virus in culture; remark: listed apart in the source
Description: Minimum inhibitory concentration in Enterobacter cloacae, P99+ constitutive depressed type 1 lactamase producer

Providencia stuartii [7] = assay: microbe, parasite or virus in culture; remark: listed apart in the source
Description: Minimum inhibitory concentration in Pseudomonas stuartii, I+442019 inducible type 1 lactamase producer

Citrobacter freundii [8] = assay: microbe, parasite or virus in culture; remark: listed apart in the source
Description: Minimum inhibitory concentration in Citrobacter freundii, I+382010 inducible type 1 lactamase producer

Enterobacter cloacae [9] = assay: microbe, parasite or virus in culture; remark: listed apart in the source
Description: Minimum inhibitory concentration in Enterobacter cloacae, I+401029 inducible type 1 lactamase producer

Pseudomonas aeruginosa [10] = assay: microbe, parasite or virus in culture; remark: listed apart in the source
Description: Minimum inhibitory concentration in Pseudomonas aeruginosa,799/61 permeability mutant

Pseudomonas aeruginosa [11] = assay: microbe, parasite or virus in culture; remark: listed apart in the source
Description: Minimum inhibitory concentration in Pseudomonas aeruginosa,799WT parent organism

Pseudomonas aeruginosa [12] = assay: microbe, parasite or virus in culture; remark: listed apart in the source
Description: Minimum inhibitory concentration in Pseudomonas aeruginosa, 18S inducible type 1 lactamase producer

Escherichia coli [13] = assay: microbe, parasite or virus in culture
Description: In vitro minimum inhibitory concentration against Escherichia coli (DC2 permeability mutant).

Escherichia coli [14] = assay: microbe, parasite or virus in culture; remark: listed apart in the source
Description: In vitro minimum inhibitory concentration against Escherichia coli (DC0 parent organism).

Staphylococcus aureus [15] = assay: microbe, parasite or virus in culture
Pseudomonas aeruginosa [16] = assay: microbe, parasite or virus in culture; remark: listed apart in the source
Description: In vitro minimum inhibitory concentration against Pseudomonas aeruginosa (PU21).

Staphylococcus aureus [17] = assay: microbe, parasite or virus in culture; remark: listed apart in the source
Staphylococcus aureus [18] = assay: The compound was tested for minimum inhibitory concentration in Staphylococcus aureus,147N penicillin sensitive Staphylococcus aureus; assay type: functional
Staphylococcus aureus [19] = assay: The compound was tested for minimum inhibitory concentration in Staphylococcus aureus Oxford penicillin sensitive Staphylococcus aureus; assay type: functional

Compound	MIC (Pseudomonas aeruginosa [1])	MIC (Enterobacter cloacae [2])	MIC (Providencia stuartii [3])	MIC (Enterobacter cloacae [4])	MIC (Citrobacter freundii [5])	MIC (Enterobacter cloacae [6])	MIC (Providencia stuartii [7])	MIC (Citrobacter freundii [8])	MIC (Enterobacter cloacae [9])	MIC (Pseudomonas aeruginosa [10])	MIC (Pseudomonas aeruginosa [11])	MIC (Pseudomonas aeruginosa [12])	MIC (Escherichia coli [13])	MIC (Escherichia coli [14])	MIC (Staphylococcus aureus [15])	MIC (Pseudomonas aeruginosa [16])	MIC (Staphylococcus aureus [17])	MIC (Staphylococcus aureus [18])	MIC (Staphylococcus aureus [19])
CC(C)(O/N=C(\C(=O)N[C@@H]1C(=O)N2C(C(=O)O)=C(CNC(=O)c3cc(O)c(O)c(C#N)c3)CSC12)c1csc(N)n1)C(=O)O (stereo partly specified)	0.06 µg/mL (≈ 0.0929 µM)	0.06 µg/mL (≈ 0.0929 µM)	4 µg/mL (≈ 6.2 µM)	8 µg/mL (≈ 12.4 µM)	2 µg/mL (≈ 3.1 µM)	2 µg/mL (≈ 3.1 µM)	0.06 µg/mL (≈ 0.0929 µM)	0.008 µg/mL (≈ 0.0124 µM)	0.03 µg/mL (≈ 0.0465 µM)	0.008 µg/mL (≈ 0.0124 µM)	0.008 µg/mL (≈ 0.0124 µM)	0.008 µg/mL (≈ 0.0124 µM)	–	–	–	–	–	–	–
CC(C)(O/N=C(/C(=O)N[C@@H]1C(=O)N2C(C(=O)O)=C(COC(=O)c3ccc(O)c(O)c3)CSC12)c1csc(N)n1)C(=O)O (stereo partly specified)	0.125 µg/mL (≈ 0.201 µM)	0.5 µg/mL (≈ 0.804 µM)	4 µg/mL (≈ 6.43 µM)	> 128 µg/mL	8 µg/mL (≈ 12.9 µM)	4 µg/mL (≈ 6.43 µM)	0.125 µg/mL (≈ 0.201 µM)	0.03 µg/mL (≈ 0.0483 µM)	0.06 µg/mL (≈ 0.0965 µM)	0.008 µg/mL (≈ 0.0129 µM)	0.008 µg/mL (≈ 0.0129 µM)	0.008 µg/mL (≈ 0.0129 µM)	0.008 µg/mL (≈ 0.0129 µM)	0.008 µg/mL (≈ 0.0129 µM)	8 µg/mL (≈ 12.9 µM)	0.3 µg/mL (≈ 0.483 µM)	4 µg/mL (≈ 6.43 µM)	–	–
Nc1nc(/C(=N/OC2(C(=O)O)CCCC2)C(=O)N[C@@H]2C(=O)N3C(C(=O)O)=C(CNC(=O)c4cc(O)c(O)c(Br)c4)CSC23)cs1 (stereo partly specified)	0.008 µg/mL (≈ 0.011 µM)	0.03 µg/mL (≈ 0.0413 µM)	2 µg/mL (≈ 2.76 µM)	16 µg/mL (≈ 22.1 µM)	4 µg/mL (≈ 5.51 µM)	2 µg/mL (≈ 2.76 µM)	0.03 µg/mL (≈ 0.0413 µM)	0.008 µg/mL (≈ 0.011 µM)	0.03 µg/mL (≈ 0.0413 µM)	0.008 µg/mL (≈ 0.011 µM)	0.008 µg/mL (≈ 0.011 µM)	0.015 µg/mL (≈ 0.0207 µM)	0.008 µg/mL (≈ 0.011 µM)	0.008 µg/mL (≈ 0.011 µM)	32 µg/mL (≈ 44.1 µM)	0.015 µg/mL (≈ 0.0207 µM)	16 µg/mL (≈ 22.1 µM)	–	–
C=C(CO/N=C(\C(=O)N[C@@H]1C(=O)N2C(C(=O)O)=C(CNC(=O)c3cc(O)c(O)c(Br)c3)CSC12)c1csc(N)n1)C(=O)O (stereo partly specified)	0.05 µg/mL (≈ 0.0717 µM)	0.06 µg/mL (≈ 0.086 µM)	2 µg/mL (≈ 2.87 µM)	> 32 µg/mL	16 µg/mL (≈ 22.9 µM)	8 µg/mL (≈ 11.5 µM)	0.03 µg/mL (≈ 0.043 µM)	0.008 µg/mL (≈ 0.0115 µM)	0.06 µg/mL (≈ 0.086 µM)	0.008 µg/mL (≈ 0.0115 µM)	0.008 µg/mL (≈ 0.0115 µM)	0.008 µg/mL (≈ 0.0115 µM)	0.008 µg/mL (≈ 0.0115 µM)	0.008 µg/mL (≈ 0.0115 µM)	16 µg/mL (≈ 22.9 µM)	0.03 µg/mL (≈ 0.043 µM)	16 µg/mL (≈ 22.9 µM)	–	–
CCN(CC1=C(C(=O)O)N2C(=O)[C@@H](NC(=O)/C(=N\OC(C)(C)C(=O)O)c3csc(N)n3)C2SC1)C(=O)c1cc(O)c(O)c(C#N)c1 (stereo partly specified)	0.125 µg/mL (≈ 0.186 µM)	0.06 µg/mL (≈ 0.0891 µM)	16 µg/mL (≈ 23.7 µM)	1 µg/mL (≈ 1.48 µM)	1 µg/mL (≈ 1.48 µM)	1 µg/mL (≈ 1.48 µM)	0.25 µg/mL (≈ 0.371 µM)	0.008 µg/mL (≈ 0.0119 µM)	0.015 µg/mL (≈ 0.0223 µM)	0.008 µg/mL (≈ 0.0119 µM)	0.008 µg/mL (≈ 0.0119 µM)	0.008 µg/mL (≈ 0.0119 µM)	–	–	–	–	–	–	–
Nc1nc(/C(=N/OC(C(=O)O)c2ccccc2)C(=O)N[C@@H]2C(=O)N3C(C(=O)O)=C(CNC(=O)c4cc(O)c(O)c(Br)c4)CSC23)cs1 (stereo partly specified)	0.03 µg/mL (≈ 0.0401 µM)	0.06 µg/mL (≈ 0.0803 µM)	0.25 µg/mL (≈ 0.334 µM)	> 128 µg/mL	4 µg/mL (≈ 5.35 µM)	2 µg/mL (≈ 2.68 µM)	0.06 µg/mL (≈ 0.0803 µM)	0.008 µg/mL (≈ 0.0107 µM)	0.03 µg/mL (≈ 0.0401 µM)	0.008 µg/mL (≈ 0.0107 µM)	0.015 µg/mL (≈ 0.0201 µM)	0.008 µg/mL (≈ 0.0107 µM)	0.008 µg/mL (≈ 0.0107 µM)	0.008 µg/mL (≈ 0.0107 µM)	16 µg/mL (≈ 21.4 µM)	0.015 µg/mL (≈ 0.0201 µM)	16 µg/mL (≈ 21.4 µM)	–	–
CCOC(=O)C(CC1=C(C(=O)O)N2C(=O)[C@@H](NC(=O)/C(=N\OC(C)(C)C(=O)O)c3csc(N)n3)C2SC1)C(=O)c1cc(O)c(O)c(Br)c1 (stereo partly specified)	0.008 µg/mL (≈ 0.0104 µM)	0.125 µg/mL (≈ 0.162 µM)	0.5 µg/mL (≈ 0.649 µM)	0.25 µg/mL (≈ 0.324 µM)	0.25 µg/mL (≈ 0.324 µM)	0.25 µg/mL (≈ 0.324 µM)	0.125 µg/mL (≈ 0.162 µM)	0.008 µg/mL (≈ 0.0104 µM)	0.03 µg/mL (≈ 0.0389 µM)	0.008 µg/mL (≈ 0.0104 µM)	0.008 µg/mL (≈ 0.0104 µM)	0.008 µg/mL (≈ 0.0104 µM)	–	–	–	–	–	–	–
CC(C)(O/N=C(\C(=O)N[C@@H]1C(=O)N2C(C(=O)O)=C(CCNC(=O)CNC(=O)c3cc(O)c(O)c(Br)c3)CSC12)c1csc(N)n1)C(=O)O (stereo partly specified)	0.5 µg/mL (≈ 0.649 µM)	0.06 µg/mL (≈ 0.0779 µM)	4 µg/mL (≈ 5.19 µM)	> 32 µg/mL	8 µg/mL (≈ 10.4 µM)	8 µg/mL (≈ 10.4 µM)	0.125 µg/mL (≈ 0.162 µM)	0.015 µg/mL (≈ 0.0195 µM)	0.06 µg/mL (≈ 0.0779 µM)	0.008 µg/mL (≈ 0.0104 µM)	0.008 µg/mL (≈ 0.0104 µM)	0.008 µg/mL (≈ 0.0104 µM)	0.015 µg/mL (≈ 0.0195 µM)	0.015 µg/mL (≈ 0.0195 µM)	–	0.015 µg/mL (≈ 0.0195 µM)	–	16 µg/mL (≈ 20.8 µM)	8 µg/mL (≈ 10.4 µM)
